Structures can show the parent of a compound that is named as a salt. Where two headings read alike, the source gives them in different places.
What was measured:
Salmonella = details: cited from earlier work
chromosome aberrations = details: cited from earlier work
FU100 [1] = test system: FU100
FU100 [2] = details: for response in the 5-FU Assay (in words): text and figure legend (FIG. 6), with or without S9
Description: Briefly, in order to practice the disclosed mutation assay one-ml aliquots of exponentially growing bacteria are exposed to the test agent for two hours in the presence and absence of a metabolic activation system, such as a mammalian (i.e., rat, hamster or human) liver homogenate (S9-fraction or liver microsomal enzymes). The aliquots are then diluted, allowed to grow for 3 hours, and assessed for treatment-related toxicity/inhibition by optical density. The cultures are subsequently diluted a second time and grown overnight to permit full recovery from toxicity and to allow expression of the FU^R phenotype. Samples of the cultures are then plated in 384-well microtiter dishes in the presence of 2 μg/ml 5-FU and the pH-sensitive indicator bromcresol purple. Three days later positive wells containing FU^R colonies are detected by their yellow color and enumerated. Treated cultures are then compared to control plates to determine genotoxic activity.
For each mutation experiment, two frozen 1-ml aliquots of FU100 were quickly thawed in a 37° C. water bath, pelleted by centrifugation, washed to remove the DMSO, and suspended in 35 mL of MinE medium. The culture was shaken for approximately 1 hour at 37° C. until the optical density at 600 nm (OD600) reached the target density of 0.3. A 16-ml aliquot of culture was added to each of two 50-ml tubes containing 3.6 ml of a NADPH-generating system (5.6 mM glucose-6-phosphate, 4.5 mM NADP+, 5 mM sucrose, 110 mM Na2HPO4, 37 mM KCl, and 9 mM MgCl2) and either 0.4 ml rat liver S-9 or an equal volume of sodium phosphate buffer. Aliquots of these mixtures were distributed into three 12-well cluster dishes (one for exposure with S-9, one for exposure without S-9, one for controls with and without S-9), and exposed to test compounds as 1-ml aliquots for 2 hour as outlined in FIG. 1.
Following treatment, the 1-ml aliquots were transferred into 9 ml of warm MinE medium in a 50 ml tube and incubated at 37° C. on a rotary wheel for 3 hours. Next, 20 ml of medium was added to each culture tube and 0.25 ml aliquots were transferred to a 96-well plate for OD600 measurements to assess toxicity (OD Day 1). […] Bulk cultures were then incubated overnight in the dark at 30° C. to permit recovery from toxicity and to allow time for the test cells to express the FU^R phenotype.
The next day, OD600 was again assessed to adjust cell number plated on 5-FU plates (OD Day 2; 100 μl of the culture diluted with 150 μl MinE medium for OD600 measurements). For plating, a 35 μl aliquot of each culture was added to 31.4 mL of MinE medium with 2 μg/ml of 5-FU and 10 μg/ml of bromcresol purple. The mixture was then dispersed into a 384-well plate (75 μl/well) and placed at 37° C. for 3 days in a humidified incubator.
The data obtained for both survival (OD day 1), relative number of cells plated (OD day 2), and number of positive wells were imported into an Excel template.
Table 8 summarizes the criteria for positive result in 5-FU assay using the FU100 tester strain described and claimed herein. […] A positive compound was defined when two or more doses met the aforementioned criteria.

[3] = test system: sister chromatid exchange; details: cited from earlier work
[4] = NTP Results Report 12 Aug. 2002 or cited reference (footnotes f, g, i, j)
[5] = NTP Results Report 12 Aug. 2002
[6] = in the presence of S9 activation (+), approximate, first dose with greater than 50% survival by optical density on Day 1
[7] = without S9 activation (−), approximate, first dose with greater than 50% survival by optical density on Day 1
[8] = in the presence of S9 activation (+), FU100, 2 h exposure
[9] = in the presence of S9 activation (+), lowest dose tested giving a positive response
[10] = without S9 activation (−), FU100, 2 h exposure
[11] = without S9 activation (−), lowest dose tested giving a positive response

Row | Compound | NTP Results: SA = Salmonella (Salmonella; [4]) | LD50 (FU100 [1]; [6]) | LD50 (FU100 [1]; [7]) | Results (5-FU assay) (FU100 [2]; [8]) | Lowest Positive Dose (FU100 [2]; [9]) | Results (5-FU assay) (FU100 [2]; [10]) | Lowest Positive Dose (FU100 [2]; [11]) | further results
1 | CN(C)N=O [N-Nitrosodimethylamine] | (SA+, CA+, SC+) | >2000 µg/mL | >2000 µg/mL | Pos | 360 µg/mL | Neg | – | NTP Results: CA = chromosome aberrations (chromosome aberrations; [5]): (SA+, CA+, SC+); NTP Results: SC = sister chromatid exchange [3, 5]: (SA+, CA+, SC+)
2 | CCC1(c2ccccc2)C(=O)NC(=O)NC1=O [Phenobarbital] | – | >500 µg/mL | >500 µg/mL | Pos^w | 1500 µg/mL | Pos^w | 2800 µg/mL | –
3 | COc1ccc2nc3cc(Cl)ccc3c(NCCCNCCCl)c2c1 [ICR-191] | (SA+) | >10 µg/mL | >3 µg/mL | Pos | 3.2 µg/mL | Pos | 0.2 µg/mL | response in the 5-FU Assay (in words) (FU100 [2]): positive compounds in non-toxic concentrations
4 | C[S+](C)[O-] [Dimethyl Sulfoxide] | (SA−, CA−, SC−) | >5000 µg/mL | >5000 µg/mL | Neg | – | Neg | – | NTP Results: CA = chromosome aberrations (chromosome aberrations; [5]): (SA−, CA−, SC−); NTP Results: SC = sister chromatid exchange [3, 5]: (SA−, CA−, SC−)
5 | Cc1cccc(Nc2cc(Cl)nc(SCC(=O)O)n2)c1C [Wyeth 14,643] | (SA−) | >900 µg/mL | >900 µg/mL | Neg | – | Neg | – | –
6 | CC(O)CCl (stereo not shown) [1-Chloro-2-propanol] | – | – | – | – | – | – | – | NTP Results: SA = Salmonella (Salmonella): (SA+, CA+, SC+); NTP Results: CA = chromosome aberrations (chromosome aberrations): (SA+, CA+, SC+); Lowest Positive Dose (FU100 [2]): 2800 µg/mL; Results (5-FU assay) (FU100 [2]): Pos^w; Results (5-FU assay) (FU100 [2]; s9): Neg; NTP Results: SC = sister chromatid exchange [3]: (SA+, CA+, SC+)
7 | CC/C(=C(\c1ccccc1)c1ccc(OCCN(C)C)cc1)c1ccccc1 [Tamoxifen] | – | >15 µg/mL | >3 µg/mL | – | – | – | – | Results (5-FU assay) (FU100 [2]): Neg
8 | C[C@H](CCC(=O)O)[C@H]1CC[C@H]2[C@@H]3CC[C@@H]4C[C@H](O)CC[C@]4(C)[C@H]3CC[C@]12C [Lithocholic Acid] | – | >2000 µg/mL | >2000 µg/mL | Neg | – | Neg | – | –
9 | CC(C)(OOC(C)(C)c1ccccc1)c1ccccc1 [Dicumyl peroxide] | (SA−) | >5000 µg/mL | >5000 µg/mL | Neg | – | Neg | – | –
10 | O=[N+]([O-])c1ccc2c(c1)Cc1ccccc1-2 [2-Nitrofluorene] | – | >2 µg/mL | >1 µg/mL | Pos | 0.6 µg/mL | Pos | 0.02 µg/mL | –
11 | c1ccc2c(c1)cc1ccc3cccc4ccc2c1c34 [Benzo[a]pyrene] | – | >20 µg/mL | >20 µg/mL | – | – | – | – | –
12 | CN(N=O)C(N)=O [N-Nitroso-N-methylurea] | (SA+) | >90 µg/mL | >90 µg/mL | Pos | 5.0 µg/mL | Pos | 5.0 µg/mL | –
13 | Nc1ccc2cc3ccccc3cc2c1 [2-Aminoanthracene] | + | >2 µg/mL | >10 µg/mL | Pos | 0.2 µg/mL | Pos | 0.6 µg/mL | NTP Results: SC = sister chromatid exchange [3, 5]: +
14 | O=Cc1ccccc1 [Benzaldehyde] | – | >150 µg/mL | >150 µg/mL | Neg | – | Neg | – | –
15 | O=C1NS(=O)(=O)c2ccccc21 [Saccharin] | – | – | – | – | – | – | – | NTP Results: SA = Salmonella (Salmonella): (SA−); LD50 (FU100 [1]; Salmonella typhimurium): >5000 µg/mL; Results (5-FU assay) (FU100 [2]): Neg
16 | CCCCCCCCCCCCOS(=O)(=O)[O-].[Na+] [Sodium Dodecyl Sulfate] | – | >35 µg/mL | >20 µg/mL | Neg | – | Neg | – | –
17 | Nc1ccc2cc3ccc(N)cc3nc2c1 [Proflavine HCl] | (SA+) | >10 µg/mL | >10 µg/mL | Pos | 0.1 µg/mL | Pos^w | 16 µg/mL | –
18 | COS(C)(=O)=O [Methyl Methanesulfonate] | (SA+) | >100 µg/mL | >100 µg/mL | Pos | 10 µg/mL | Pos | 0.6 µg/mL | plating efficiency of FU^R mutants in treated culture at the end of day 1 (FU100 [2]; before overnight grow back was introduced): significantly suppressed; response in the 5-FU Assay (in words) (FU100 [2]): positive compounds in non-toxic concentrations
19 | O=[N+]([O-])c1cc[n+]([O-])c2ccccc12 [4-Nitroquinoline N-oxide] | – | >0.5 µg/mL | >0.5 µg/mL | – | – | – | – | –
20 | O=c1ccc2ccccc2o1 [Coumarin] | – | >150 µg/mL | >900 µg/mL | Pos | 50 µg/mL | Neg | – | –
